# Assay results taken from ChEMBL document CHEMBL1806491, “The tandem chain extension aldol reaction used for synthesis of ketomethylene tripeptidomimetics targeting hPEPT1” (Bioorg Med Chem Lett, 2011).
# Non-standard residues stand in square brackets, D forms with d. Residues, ends and D or L forms follow the SMILES beside them. *: point of attachment. 1Nal = N[C@@H](Cc1cccc2ccccc12)C(=O)O; Chg = N[C@H](C(=O)O)C1CCCCC1; Nva = CCC[C@H](N)C(=O)O; Bz = O=C(c1ccccc1)*
# How the values were obtained:
# [1] = target: T1, Solute carrier family 15 member 1 (Homo sapiens) (UniProt P46059); assay: (§1) Binding affinity to PEPT1 in human Caco2 cells assessed as inhibition of [14C]Gly-Sar apical uptake after 5 mins by liquid scintillation counting; type: cell-based; conditions: Caco-2
# T1 sequence (whole entry): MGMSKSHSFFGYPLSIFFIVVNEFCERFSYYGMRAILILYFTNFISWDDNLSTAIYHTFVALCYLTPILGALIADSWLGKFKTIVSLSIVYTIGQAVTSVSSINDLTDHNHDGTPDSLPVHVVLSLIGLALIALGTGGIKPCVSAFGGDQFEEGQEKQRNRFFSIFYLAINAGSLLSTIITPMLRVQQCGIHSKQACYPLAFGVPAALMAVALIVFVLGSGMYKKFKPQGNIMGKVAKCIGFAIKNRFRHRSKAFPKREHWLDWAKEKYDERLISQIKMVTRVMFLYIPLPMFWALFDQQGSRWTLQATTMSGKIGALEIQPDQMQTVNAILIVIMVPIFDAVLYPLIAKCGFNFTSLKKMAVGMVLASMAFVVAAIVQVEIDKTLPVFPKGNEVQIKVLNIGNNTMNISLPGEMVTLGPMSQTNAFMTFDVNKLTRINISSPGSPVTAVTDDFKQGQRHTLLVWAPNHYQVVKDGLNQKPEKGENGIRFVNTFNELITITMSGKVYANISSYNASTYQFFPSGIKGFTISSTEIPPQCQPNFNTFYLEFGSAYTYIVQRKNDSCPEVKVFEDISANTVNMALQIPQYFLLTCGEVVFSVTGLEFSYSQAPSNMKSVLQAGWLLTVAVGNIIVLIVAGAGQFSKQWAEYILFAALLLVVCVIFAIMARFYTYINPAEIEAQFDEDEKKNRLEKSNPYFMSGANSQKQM
# [2] = target: T2, Solute carrier family 15 member 1 (Homo sapiens, UniProt P46059); assay: as §1; type: cell-based, Caco-2
# T2 sequence (P46059 whole entry): T1 sequence (whole entry)
inhibition [1],Ki [2] [µM],Compound
Dose-dependent effect,324,C[C@H](NC(=O)[C@H](COC(=O)c1ccccc1)CC(=O)[C@@H](N)Cc1ccccc1)C(=O)O
Dose-dependent effect,251,CCC[C@H](NC(=O)[C@H](COC(=O)c1ccccc1)CC(=O)[C@@H](N)Cc1ccccc1)C(=O)O
Dose-dependent effect,–,N[C@@H](Cc1ccccc1)C(=O)C[C@@H](COC(=O)c1ccccc1)C(=O)N[C@H](C(=O)O)C1CCCCC1
Dose-dependent effect,–,N[C@@H](Cc1ccccc1)C(=O)N[C@@H](COC(=O)c1ccccc1)C(=O)N[C@@H](Cc1cccc2ccccc12)C(=O)O (H-Phe-Ser(Bz)-[1Nal]-OH)
Dose-dependent effect,–,N[C@@H](Cc1ccccc1)C(=O)N[C@@H](COC(=O)c1ccccc1)C(=O)N[C@H](C(=O)O)C1CCCCC1 (H-Phe-Ser(Bz)-[Chg]-OH)
Dose-dependent effect,–,CCC[C@H](NC(=O)[C@H](COC(=O)c1ccccc1)NC(=O)[C@@H](N)Cc1ccccc1)C(=O)O (H-Phe-Ser(Bz)-[Nva]-OH)
Dose-dependent effect,257,C[C@H](NC(=O)[C@H](CO)NC(=O)[C@@H](N)Cc1ccccc1)C(=O)O (H-Phe-Ser-Ala-OH)
